ChEMBL document CHEMBL1147698, “Design of a potent, soluble glucokinase activator with excellent in vivo efficacy” (Bioorg Med Chem Lett, 2006)
Converted amounts (≈) assume the structure as drawn.

Columns and labels:
[1] = Percent of unbound ligand in rat plasma; type: ADME, organism-based
Hexokinase-4 = molecular target: T1, Hexokinase-4 (Homo sapiens, UniProt P35557)
T1 sequence (P35557 whole entry): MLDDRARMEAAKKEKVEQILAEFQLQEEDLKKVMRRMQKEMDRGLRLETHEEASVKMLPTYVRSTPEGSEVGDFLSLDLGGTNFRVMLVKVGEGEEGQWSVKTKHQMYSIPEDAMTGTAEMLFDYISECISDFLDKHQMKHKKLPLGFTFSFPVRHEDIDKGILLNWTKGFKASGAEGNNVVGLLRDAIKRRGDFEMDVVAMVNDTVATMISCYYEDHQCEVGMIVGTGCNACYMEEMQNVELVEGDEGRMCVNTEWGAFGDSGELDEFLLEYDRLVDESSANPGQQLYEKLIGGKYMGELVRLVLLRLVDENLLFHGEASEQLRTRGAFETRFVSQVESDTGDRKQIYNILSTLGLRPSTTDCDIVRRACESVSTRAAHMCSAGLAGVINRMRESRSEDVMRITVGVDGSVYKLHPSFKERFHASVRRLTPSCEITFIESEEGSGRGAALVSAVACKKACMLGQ
Description: Activation of glucokinase

Rattus norvegicus [2] = species on record: Rattus norvegicus; assay: Unbound clearance in rat; type: ADME, organism-based; details: in vivo
[3] = Intrinsic clearance in rat per 10^6 cells; type: ADME
Rattus norvegicus [4] = assay: Decrease in glucose level in Zucker rat at 3 mg/kg, po by oral glucose tolerance test; type: ADME, organism-based; design: dose 3 mg/kg, route oral; details: in vivo
[5] = Bioavailability in rat; type: ADME, organism-based; details: in vivo
[6] = Solubility of the compound; type: physicochemical
[7] = Clearance in rat; type: ADME, organism-based; details: in vivo
Rattus norvegicus [8] = assay: Decrease in glucose level in Zucker rat at 1 mg/kg, po by oral glucose tolerance test; type: ADME, organism-based; design: dose 1 mg/kg, route oral; details: in vivo
[9] = Bioavailability in dog; type: ADME, organism-based, Canis lupus familiaris; details: in vivo
Canis familiaris [10] = species on record: Canis familiaris; assay: Unbound clearance in dog; type: ADME, organism-based, Canis lupus familiaris; details: in vivo
[11] = Clearance in dog; type: ADME, organism-based, Canis lupus familiaris; details: in vivo
[12] = Intrinsic clearance in dog per 10^6 cells; type: ADME, Canis lupus familiaris; details: not recorded
Rattus norvegicus [13] = species on record: Rattus norvegicus; assay: Decrease in glucose level in Zucker rat by oral glucose tolerance test; type: ADME, organism-based; details: in vivo
Canis familiaris [14] = species on record: Canis familiaris; assay: Hepatic blood flow in dog; type: ADME, organism-based, Canis lupus familiaris, Liver
Rattus norvegicus [15] = species on record: Rattus norvegicus; assay: Clearance in rat measured as percent of hepatic blood flow; type: ADME, organism-based, Liver; details: in vivo
[16] = Percent of unbound ligand in dog plasma; type: ADME, organism-based, Canis lupus familiaris
Rattus norvegicus [17] = species on record: Rattus norvegicus; assay: Hepatic blood flow in rat; type: ADME, organism-based, Liver
Canis familiaris [18] = species on record: Canis familiaris; assay: Clearance in dog measured as percent of hepatic blood flow; type: ADME, organism-based, Canis lupus familiaris, Liver; details: in vivo

**Q.** With CC(C)Oc1cc(O[C@H](C)Cc2ccccc2)cc(C(=O)Nc2ccc(C(=O)O)cn2)c1 as the molecule, how does the fraction unbound [1] read?
**A.** Its fraction unbound is 0.0023.

**Q.** What about the EC50 (Hexokinase-4) of the same molecule?
**A.** The EC50 was 90 nM.

**Q.** With COC[C@@H](C)Oc1cc(OC(C)C)cc(C(=O)Nc2ccc(C(=O)O)cn2)c1 as the molecule, how does the fraction unbound [1] read?
**A.** Its fraction unbound is 0.0622.

**Q.** And the EC50 (Hexokinase-4)?
**A.** Its EC50 is 5510 nM.

**Q.** Which results are given for CC(C)Oc1cc(O[C@@H](C)c2ccccc2)cc(C(=O)Nc2ccc(C(=O)O)cn2)c1?
**A.** CL/F (Rattus norvegicus [2]): 171 mL/min/kg; hepatocyte CLint [3]: < 1 µL/min/1e6 cells; EC50 (Hexokinase-4): 110 nM

**Q.** Which results are given for CC(C)Oc1cc(O[C@@H](C)Cc2ccccc2)cc(C(=O)Nc2ccc(C(=O)O)cn2)c1?
**A.** CL/F (Rattus norvegicus [2]): 1435 mL/min/kg; Activity (Rattus norvegicus [4]): Active; bioavailability [5]: 85%; solubility [6]: 8 µM (≈ 3.48 µg/mL); EC50 (Hexokinase-4): 20 nM

**Q.** Which CL/F (Rattus norvegicus [2]) does the source give for COC[C@H](C)Oc1cc(OC(C)C)cc(C(=O)Nc2ccc(C(=O)O)cn2)c1 here?
**A.** Its CL/F is 43 mL/min/kg.

**Q.** What about the bioavailability [5] of the same molecule?
**A.** Its bioavailability is 100%.

**Q.** What about the clearance [7] of the same molecule?
**A.** The clearance was 2.3 mL/min/kg.

**Q.** What about the Activity (Rattus norvegicus [8]) of the same molecule?
**A.** The Activity was “Active”.

**Q.** And the solubility [6]?
**A.** Its solubility is > 3140 µM.

**Q.** What about the fraction unbound [1] of the same molecule?
**A.** Its fraction unbound is 0.0534.

**Q.** What about the EC50 (Hexokinase-4) of the same molecule?
**A.** The EC50 was 610 nM.

**Q.** Which results are given for CC(C)Oc1cc(O[C@H](C)c2ccccc2)cc(C(=O)Nc2ccc(C(=O)O)cn2)c1?
**A.** fraction unbound [1]: 0.0048; EC50 (Hexokinase-4): 950 nM

**Q.** Which bioavailability [9] does the source give for COC[C@H](C)Oc1cc(O[C@@H](C)Cc2ccccc2)cc(C(=O)Nc2ccc(C(=O)O)cn2)c1 here?
**A.** The bioavailability was 100%.

**Q.** And the CL/F (Rattus norvegicus [2])?
**A.** The CL/F was 475 mL/min/kg.

**Q.** And the CL/F (Canis familiaris [10])?
**A.** The CL/F was 301 mL/min/kg.

**Q.** What about the bioavailability [5] of the same molecule?
**A.** The bioavailability was 99%.

**Q.** And the clearance [11]?
**A.** Its clearance is 4.4 mL/min/kg.

**Q.** What about the solubility [6] of the same molecule?
**A.** The solubility was 1350 µM (≈ 627 µg/mL).

**Q.** And the hepatocyte CLint [12]?
**A.** The hepatocyte CLint was < 1 µL/min/1e6 cells.

**Q.** What about the Activity (Rattus norvegicus [13]) of the same molecule?
**A.** The Activity was “Dose-dependent effect”.

**Q.** For CC(C)Oc1cc(OCc2ccccc2)cc(C(=O)Nc2ccc(C(=O)O)cn2)c1, which CL/F (Rattus norvegicus [2]) is on record?
**A.** The CL/F was 1850 mL/min/kg.

**Q.** And the clearance [7]?
**A.** The clearance was 3.7 mL/min/kg.

**Q.** What about the hepatocyte CLint [3] of the same molecule?
**A.** The hepatocyte CLint was < 1 µL/min/1e6 cells.

**Q.** What about the fraction unbound [1] of the same molecule?
**A.** Its fraction unbound is 0.002.

**Q.** For CC(C)Oc1cc(OCCc2ccsc2)cc(C(=O)Nc2ccc(C(=O)O)cn2)c1, which Activity (Canis familiaris [14]) is on record?
**A.** The Activity was 31 mL/min/kg.

**Q.** And the CL/F (Rattus norvegicus [2])?
**A.** The CL/F was 1461 mL/min/kg.

**Q.** What about the CL/F (Canis familiaris [10]) of the same molecule?
**A.** Its CL/F is 1359 mL/min/kg.

**Q.** What about the “%LBF” value (Rattus norvegicus [15]) of the same molecule?
**A.** Its value is 5.3%.

**Q.** What about the fraction unbound [16] of the same molecule?
**A.** Its fraction unbound is 0.0064.

**Q.** What about the clearance [11] of the same molecule?
**A.** Its clearance is 8.7 mL/min/kg.

**Q.** What about the Activity (Rattus norvegicus [17]) of the same molecule?
**A.** Its Activity is 72 mL/min/kg.

**Q.** And the hepatocyte CLint [12]?
**A.** The hepatocyte CLint was < 1 µL/min/1e6 cells.

**Q.** What about the hepatocyte CLint [3] of the same molecule?
**A.** The hepatocyte CLint was < 1 µL/min/1e6 cells.

**Q.** What about the “%LBF” value (Canis familiaris [18]) of the same molecule?
**A.** The value was 28%.

**Q.** What about the fraction unbound [1] of the same molecule?
**A.** The fraction unbound was 0.0026.
